According to ChEMBL document CHEMBL4321852, “Structure-Based and Property-Driven Optimization of N-Aryl Imidazoles toward Potent and Selective Oral RORγt Inhibitors” (J Med Chem, 2019):

Tests used:
[1] = Inhibition of RORgammat in rat CD4+ T-cells polarized with Th17 cytokine mix assessed as inhibition of IL-17 secretion
[2] = target: T1, Nuclear receptor ROR-gamma (Homo sapiens, UniProt P51449); experiment: Inverse agonist activity at RORgammat in human whole blood assessed as reduction in Con A/IL-23-stimulated IL-17 secretion after 72 hrs by ELISA; format: tissue-based
T1 sequence (P51449 whole entry): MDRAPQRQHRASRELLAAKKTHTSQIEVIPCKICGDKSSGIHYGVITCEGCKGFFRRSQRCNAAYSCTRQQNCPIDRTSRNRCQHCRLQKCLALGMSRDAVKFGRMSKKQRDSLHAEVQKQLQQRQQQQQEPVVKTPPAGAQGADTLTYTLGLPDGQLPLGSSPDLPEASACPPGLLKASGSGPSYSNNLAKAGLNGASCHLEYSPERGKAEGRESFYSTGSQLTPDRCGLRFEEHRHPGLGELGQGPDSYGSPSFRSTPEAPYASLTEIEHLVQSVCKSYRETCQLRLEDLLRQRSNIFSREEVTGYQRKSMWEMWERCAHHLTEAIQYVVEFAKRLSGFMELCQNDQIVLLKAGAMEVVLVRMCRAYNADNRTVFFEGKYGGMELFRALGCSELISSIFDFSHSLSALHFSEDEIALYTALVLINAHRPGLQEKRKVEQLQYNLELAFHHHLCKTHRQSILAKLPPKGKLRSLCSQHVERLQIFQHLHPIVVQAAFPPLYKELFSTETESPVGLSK

[3] = Terminal half life in Sprague-Dawley rat at 1 mg/kg, iv; format: ADME, organism-based; conditions: in vivo, read-out: beta t1/2 (converted)
[4] = Dose normalized AUC in DA rat at 5 mg/kg, po; format: ADME, organism-based; conditions: in vivo
[5] = target: T2, Nuclear receptor ROR-alpha (Homo sapiens, UniProt P35398); experiment: Inhibition of Gal4-tagged RORalpha LBD (unknown origin) by cell based luciferase reporter gene assay
T2 sequence (P35398 whole entry): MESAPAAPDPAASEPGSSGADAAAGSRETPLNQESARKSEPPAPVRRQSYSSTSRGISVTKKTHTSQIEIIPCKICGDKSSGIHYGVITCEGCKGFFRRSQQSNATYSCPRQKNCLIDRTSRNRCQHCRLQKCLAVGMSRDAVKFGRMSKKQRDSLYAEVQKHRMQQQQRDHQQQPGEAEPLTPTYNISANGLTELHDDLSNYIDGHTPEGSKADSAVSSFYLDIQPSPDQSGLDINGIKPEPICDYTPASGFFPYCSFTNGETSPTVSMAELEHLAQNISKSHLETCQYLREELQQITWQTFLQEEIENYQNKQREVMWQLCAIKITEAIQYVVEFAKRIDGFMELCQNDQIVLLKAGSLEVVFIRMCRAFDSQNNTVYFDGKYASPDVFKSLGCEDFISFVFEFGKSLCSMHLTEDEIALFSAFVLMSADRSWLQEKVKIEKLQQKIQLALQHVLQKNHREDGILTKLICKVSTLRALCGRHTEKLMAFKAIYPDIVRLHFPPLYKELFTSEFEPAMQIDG

Bile acid receptor = target: T3, Bile acid receptor (Homo sapiens, UniProt Q96RI1); experiment: Inhibition of Gal4-tagged FXR LBD (unknown origin) by cell based luciferase reporter gene assay
T3 sequence (Q96RI1 whole entry): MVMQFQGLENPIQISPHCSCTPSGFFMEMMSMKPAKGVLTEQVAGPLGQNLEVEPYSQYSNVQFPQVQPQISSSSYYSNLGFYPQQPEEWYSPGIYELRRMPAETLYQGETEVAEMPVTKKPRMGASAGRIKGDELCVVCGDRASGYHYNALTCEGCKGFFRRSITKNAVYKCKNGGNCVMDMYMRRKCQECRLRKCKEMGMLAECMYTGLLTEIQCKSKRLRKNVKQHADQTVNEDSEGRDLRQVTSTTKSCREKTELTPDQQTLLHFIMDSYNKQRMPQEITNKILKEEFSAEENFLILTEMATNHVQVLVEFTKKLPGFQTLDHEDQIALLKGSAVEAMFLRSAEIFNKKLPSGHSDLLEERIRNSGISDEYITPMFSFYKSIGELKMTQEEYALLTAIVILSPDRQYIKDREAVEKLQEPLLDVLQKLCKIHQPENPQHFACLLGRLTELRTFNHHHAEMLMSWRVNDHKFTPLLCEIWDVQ

Glucocorticoid receptor = target: T4, Glucocorticoid receptor (Homo sapiens, UniProt P04150); experiment: Inhibition of Gal4-tagged GR LBD (unknown origin) by cell based luciferase reporter gene assay
T4 sequence (P04150 whole entry): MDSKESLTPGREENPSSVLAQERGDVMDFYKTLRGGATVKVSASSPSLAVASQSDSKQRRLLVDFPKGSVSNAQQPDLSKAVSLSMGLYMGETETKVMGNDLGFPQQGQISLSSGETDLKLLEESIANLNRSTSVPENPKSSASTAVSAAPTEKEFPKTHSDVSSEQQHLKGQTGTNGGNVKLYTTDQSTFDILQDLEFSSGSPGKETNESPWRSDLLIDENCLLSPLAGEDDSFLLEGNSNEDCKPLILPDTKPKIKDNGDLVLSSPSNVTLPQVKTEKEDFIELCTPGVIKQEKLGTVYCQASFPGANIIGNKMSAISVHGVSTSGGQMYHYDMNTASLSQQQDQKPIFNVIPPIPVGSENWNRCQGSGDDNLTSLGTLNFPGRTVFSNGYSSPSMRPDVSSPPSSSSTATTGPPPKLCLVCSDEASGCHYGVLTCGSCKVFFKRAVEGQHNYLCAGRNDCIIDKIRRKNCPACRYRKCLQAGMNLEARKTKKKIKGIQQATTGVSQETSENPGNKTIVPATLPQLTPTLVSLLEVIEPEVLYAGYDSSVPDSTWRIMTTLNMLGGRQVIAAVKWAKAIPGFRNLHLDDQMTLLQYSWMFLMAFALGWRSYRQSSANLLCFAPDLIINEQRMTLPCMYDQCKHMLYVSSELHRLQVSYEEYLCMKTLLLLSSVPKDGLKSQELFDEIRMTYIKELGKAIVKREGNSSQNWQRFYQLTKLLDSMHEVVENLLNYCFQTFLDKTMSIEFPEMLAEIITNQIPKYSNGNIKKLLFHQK

Vitamin D3 receptor = target: T5, Vitamin D3 receptor (Homo sapiens, UniProt P11473); experiment: Inhibition of Gal4-tagged VDR LBD (unknown origin) by cell based luciferase reporter gene assay
T5 sequence (P11473 whole entry): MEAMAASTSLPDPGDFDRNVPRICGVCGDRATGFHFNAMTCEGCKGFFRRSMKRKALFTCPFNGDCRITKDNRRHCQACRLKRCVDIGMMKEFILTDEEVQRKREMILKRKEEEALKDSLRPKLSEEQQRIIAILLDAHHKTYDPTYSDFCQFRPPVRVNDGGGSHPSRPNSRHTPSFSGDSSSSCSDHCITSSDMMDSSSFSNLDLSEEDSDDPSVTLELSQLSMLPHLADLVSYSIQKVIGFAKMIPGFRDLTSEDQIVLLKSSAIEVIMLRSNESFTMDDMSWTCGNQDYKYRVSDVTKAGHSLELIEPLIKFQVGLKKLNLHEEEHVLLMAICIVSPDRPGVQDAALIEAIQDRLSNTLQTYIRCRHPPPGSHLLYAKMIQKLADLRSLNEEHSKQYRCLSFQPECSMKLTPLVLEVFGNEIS

IC50 [1]: 0.387 µM
IC50 [2]: 1.34 µM
half-life [3]: 5.3 h
AUC/dose [4]: 11391 nM·h
IC50 [5]: > 10 µM
IC50 (Bile acid receptor): > 10 µM
IC50 (Glucocorticoid receptor): > 10 µM
IC50 (Vitamin D3 receptor): > 10 µM
SMILES: Cc1c(C2(C(F)(F)F)CC2)nc(C2CC2)n1-c1c(Cl)ccc(N2CC3(CC(C(=O)O)C3)C2)c1Cl (single isomer, unassigned; atropisomer)
